Assay results from the supplement of paper PMC10307832.

Legend:
Experiment in all cases: relative viability (nuclei count vs DMSO), 5 days (fraction); higher = more cells survive
[1] = compound: OCc1c[nH]c2ccccc12 [Indole-3-carbinol] + Cc1nc(Nc2ncc(C(=O)Nc3c(C)cccc3Cl)s2)cc(N2CCN(CCO)CC2)n1 [Dasatinib] (partner 0.075 µM)
How it was run: (§1)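 For relative viability, nuclei counts in treated wells were divided by those in vehicle wells. Lung cancer cell lines had been pin-tool dosed in 1536-well plates the day after seeding and cultured for 5 days, then fixed and stained in one step (final 0.05% Triton X-100, 1% formaldehyde, 1 ug/ml Hoechst) and imaged at 4×. Doses were one drug alone or a fixed anchor-drug dose plus five library-drug doses (not always all listed) in √10 steps, and values are duplicate-plate medians.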

[2] = compound: OCc1c[nH]c2ccccc12 [Indole-3-carbinol] + COc1cc2c(Oc3ccc(NC(=O)C4(C(=O)Nc5ccc(F)cc5)CC4)cc3F)ccnc2cc1OCCCN1CCOCC1 [Foretinib] (partner 0.25 µM)
How it was run: as §1

[3] = compound: OCc1c[nH]c2ccccc12 [Indole-3-carbinol] + O=C(c1cc(Cc2n[nH]c(=O)c3ccccc23)ccc1F)N1CCN(C(=O)C2CC2)CC1 [Olaparib] (partner 8 µM)
How it was run: as §1

[4] = compound: OCc1c[nH]c2ccccc12 [Indole-3-carbinol] + Nc1ncn([C@H]2C[C@H](O)[C@@H](CO)O2)c(=O)n1 [Decitabine] (partner 2 µM)
How it was run: as §1

[5] = compound: OCc1c[nH]c2ccccc12 [Indole-3-carbinol] + CC1(C)CCC(c2ccc(Cl)cc2)=C(CN2CCN(c3ccc(C(=O)NS(=O)(=O)c4ccc(N[C@H](CCN5CCOCC5)CSc5ccccc5)c(S(=O)(=O)C(F)(F)F)c4)cc3)CC2)C1 [Navitoclax] (partner 0.5 µM)
How it was run: as §1

Cell Line	relative viability ([1]; first compound 0.253 µM)	relative viability ([1]; first compound 0.8 µM)	relative viability ([1]; first compound 2.53 µM)	relative viability ([1]; first compound 8 µM)	relative viability ([2]; first compound 0.253 µM)	relative viability ([2]; first compound 0.8 µM)	relative viability ([2]; first compound 2.53 µM)	relative viability ([2]; first compound 8 µM)	relative viability ([3]; first compound 0.253 µM)	relative viability ([3]; first compound 0.8 µM)	relative viability ([3]; first compound 2.53 µM)	relative viability ([3]; first compound 8 µM)	relative viability ([4]; first compound 0.253 µM)	relative viability ([4]; first compound 0.8 µM)	relative viability ([4]; first compound 2.53 µM)	relative viability ([4]; first compound 8 µM)	relative viability ([5]; first compound 0.253 µM)	relative viability ([5]; first compound 0.8 µM)	relative viability ([5]; first compound 2.53 µM)	relative viability ([5]; first compound 8 µM)
NCI-H520	0.177	0.245	0.242	0.183	0.863	0.774	0.705	0.62	0.336	0.341	0.383	0.265	0.526	0.541	0.505	0.541	1.12	0.999	1.14	1.12
NCI-H1755	0.441	0.456	0.706	0.364	0.982	0.953	0.895	0.895	0.894	0.926	0.929	0.872	0.737	0.686	0.725	0.638	1.02	1.01	0.975	0.984
NCI-H2087	0.985	0.942	0.936	0.78	1.08	1.47	1.18	1.13	0.575	0.631	0.625	0.541	0.278	0.323	0.255	0.341	1.04	1.22	1.02	0.967
NCI-H2023	0.576	0.529	0.578	0.532	0.978	0.971	0.822	0.916	0.471	0.564	0.518	0.422	0.213	0.213	0.212	0.198	1.01	1.05	0.977	0.954
NCI-H2085	0.259	0.225	0.256	0.262	0.781	1.11	0.879	0.865	0.9	0.844	0.773	0.691	0.5	0.63	0.483	0.506	1.1	1.02	1.15	1.05
LCLC-97TM1	0.835	0.949	0.944	0.908	0.982	0.973	1.03	0.983	0.38	0.552	0.489	0.265	0.259	0.249	0.199	0.223	0.408	0.387	0.499	0.465
NCI-H2126	0.618	0.683	0.592	0.632	1.05	1.23	1.25	1.06	0.859	1	0.934	0.87	0.6	0.601	0.547	0.54	0.824	0.872	0.865	0.83
201T	0.556	0.635	0.566	0.554	1.1	1.07	1.04	1.01	0.849	0.856	0.843	0.848	0.819	0.834	0.885	0.844	1.22	1.15	1.18	1.2
